Results on 4 substances are retold here after patent publication US20060167006A1, “Method of treatment” (priority 2003, published 2006).

Holding throughout (type): cell-based, human
One experiment deals with Mia-PaCa-2 cells. Put plainly: Growth factor-induced proliferation (MTT), Mia-PaCa-2. The settings on record: for Maximal effect of growth factor on cell growth: Mia-PaCa-2, growth factor alone (absence of Compound I), 72 hours, MTT. As to the method: (§1) Cell culture and MTT assay: Human pancreatic cancer cell lines are routinely grown in DMEM (Colo-357 and Mia-PaCa-2) or RPMI (Aspc-1, BxPc-3, Capan-1, and T3M4) supplemented with 10% FBS, 100 U/ml penicillin, and 100 μg/ml streptomycin (complete medium). To assess cell proliferation, the MTT test is employed. […] After 48 or 72 hours of incubation, 3-(4,5-methylthiazol-2-yl)-2,5-diphenyl-tetrazolium bromide (MTT) is added (50 μg/well) for 4 hours. Formazan products are solubilized with acidic isopropanol, and the optical density is measured at 570 nm. […] All experiments are performed in triplicate.
(§2) EGF-induced proliferation of both Mia-PaCa-2 and T3M4 cell lines in a dose-dependent manner is seen with maximal effects of +72% ±7.5% (Mia-PaCa-2) and +52% ±23% (T3M4). […] FGF-2 markedly stimulates cell growth in Mia-PaCa-2 cell lines with maximal effects of +79% ±6%, and only slightly stimulated T3M4 cell lines, with maximal effects of +7% ±4%. […] Both cell lines are less sensitive to IGF-1 stimulation compared with EGF and FGF-2, with maximal effects of +24% ±2% in Mia-PaCa-2 and +17% ±4% in. T3M4.

The subject of the next experiment is T3M4 cells. Put plainly: Growth factor-induced proliferation (MTT), T3M4. The settings on record: for Maximal effect of growth factor on cell growth: T3M4, growth factor alone (absence of Compound I), 72 hours, MTT. The protocol: as §1, §2
In the next experiment the test system is MAPK. Description: Western blot of MAPK phosphorylation in growth factor-conditioned cells. The settings on record: Mia-PaCa-2 and T3M4 cells, data not shown. As to the method: Western blot analysis: Cell culture monolayers are washed twice with ice-cold PBS and lysed with buffer containing Tris-HCl (50 mM, pH 7.4), NP-40 (1%), Na-deoxycholate (0.25%), NaCl (150 mM), EDTA (1 mM), PMSF (1 mM), Na3VO4 (1 mM), NaF (1 mM) and one tablet of complete mini-EDTA-free protease inhibitor cocktail (in 10 ml buffer). Protein concentration is determined by the BCA protein assay (Pierce Chemical Co., Rockford, Ill., USA). 30 μg of cell lysates are separated on SDS-polyacrylamide gels and electroblotted onto nitrocellulose membranes. Membranes are then incubated in blocking solution (5% nonfat-milk in 20 mM Tris-HCl, 150 mM NaCl, 0.1% Tween-20) (TBS-T), followed by incubation with the indicated antibodies at 4° C. overnight. The membranes are then washed in TBS-T and incubated with HRPO-conjugated secondary antibodies for 1 hour at room temperature. Antibody detection is performed with an enhanced chemiluminescence reaction. Statistical analysis: Results are expressed as mean±SEM. For statistical analysis, the Student's t-test is used. Significance is defined as p<0.05.

Experiment [1] deals with BxPc-3, Colo-357 and Capan-1. Put plainly: PDGF effect on cell growth, three additional cell lines. The settings on record: BxPc-3, Colo-357 and Capan-1, growth factor alone. As to the method: as §1, §2

Take “EGF: epidermal growth factor, EGF from Upstate Biotechnology”: the figures for the “Maximal effect of growth factor on cell growth” value (from here on “Maximal effect of growth factor”) with Mia-PaCa-2 cells and in the experiment on T3M4 cells were “+72% ±7.5” and “+52% ±23”, respectively.

For the substance “FGF-2: human recombinant FGF-2 from R&D Systems”, the “Maximal effect of growth factor” value in the experiment with Mia-PaCa-2 cells is recorded as “+79% ±6”; in the experiment with T3M4 cells, “+7% ±4”.

For the substance “IGF-1: human recombinant IGF-1 from R&D Systems”, the “Maximal effect of growth factor” value with Mia-PaCa-2 cells is listed as “+24% ±2”; with T3M4 cells, “+17% ±4”.

PDGF: in the experiment on MAPK, the “Induction of PDGF and MAPK kinase phosphorylation” value was “does not induce PDGF and MAPK kinase phosphorylation”. The “Induction of cell proliferation by growth factor” value is given as “does not induce cell proliferation” in the experiment on Mia-PaCa-2 cells (Mia-PaCa-2, growth factor alone) and “does not induce cell proliferation” in the experiment with T3M4 cells (T3M4, growth factor alone). Moreover, the “Effect of growth factor on cell growth” value in experiment [1] was “no effect on cell growth”.
